In PubChem BioAssay AID2060618 (Molecular Pharmacology Branch, DTP, NCI, 2025):
pIC50: −log10 of the molar value.

System: 454973-116-R2-J3-PDC spheroids, percent test/control viability
Assay: Anticancer human tumor 454973-116-R2-J3-PDC patient-derived pancreatic carcinoma cell line growth inhibition [CLK]
Conditions: spheroids with HUVEC and MSC; for pIC50: curve of first compound; for viability, T/C: stronger effect = lower value
Outline: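 Multi-cell-type spheroids combined patient-derived tumor cells with HUVEC endothelial cells and human mesenchymal stem cells. Paired agents were dosed in half-log steps down from about clinical Cmax, or from 10 microM where Cmax was unknown.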

[1] = second compound 0.0316 µM, first compound 0.0316 µM
[2] = second compound 0.0316 µM, first compound 0.1 µM
[3] = second compound 0.0316 µM, first compound 0.316 µM
[4] = second compound 0.0316 µM, first compound 1 µM
[5] = second compound 0.1 µM, first compound 0.0316 µM
[6] = second compound 0.1 µM, first compound 0.1 µM
[7] = second compound 0.1 µM, first compound 0.316 µM
[8] = second compound 0.1 µM, first compound 1 µM
[9] = second compound 0.316 µM, first compound 0.0316 µM
[10] = second compound 0.316 µM, first compound 0.1 µM
[11] = second compound 0.316 µM, first compound 0.316 µM
[12] = second compound 0.316 µM, first compound 1 µM
[13] = second compound 1 µM, first compound 0.0316 µM
[14] = second compound 1 µM, first compound 0.1 µM
[15] = second compound 1 µM, first compound 0.316 µM
[16] = second compound 1 µM, first compound 1 µM
[17] = second compound 3.16 µM, first compound 0.0316 µM
[18] = second compound 3.16 µM, first compound 0.1 µM
[19] = second compound 3.16 µM, first compound 0.316 µM
[20] = second compound 3.16 µM, first compound 1 µM
[21] = second compound 10 µM, first compound 0.0316 µM
[22] = second compound 10 µM, first compound 0.1 µM
[23] = second compound 10 µM, first compound 0.316 µM
[24] = second compound 10 µM, first compound 1 µM
[25] = second compound 0.0316 µM, first compound 3.16 µM
[26] = second compound 0.0316 µM, first compound 10 µM
[27] = second compound 0.1 µM, first compound 3.16 µM
[28] = second compound 0.1 µM, first compound 10 µM
[29] = second compound 0.316 µM, first compound 3.16 µM
[30] = second compound 0.316 µM, first compound 10 µM
[31] = second compound 1 µM, first compound 3.16 µM
[32] = second compound 1 µM, first compound 10 µM
[33] = second compound 3.16 µM, first compound 3.16 µM
[34] = second compound 3.16 µM, first compound 10 µM
[35] = second compound 10 µM, first compound 3.16 µM
[36] = second compound 10 µM, first compound 10 µM
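Further: spheroids exposed to compounds for 7 days before readout.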

SMILES: CCc1c2c(nc3ccc(O)cc13)-c1cc3c(c(=O)n1C2)COC(=O)[C@]3(O)CC + CN1CCN(c2cc(C(=O)Nc3cc4cc(-c5cnn(C)c5)ccc4cn3)ccn2)CC1
- pIC50 (second compound 0.0316 µM): > 8.50
- pIC50 (second compound 0.1 µM): > 8.50
- pIC50 (second compound 0.316 µM): > 8.50
- pIC50 (second compound 1 µM): > 8.50
- pIC50 (second compound 3.16 µM): > 8.50
- pIC50 (second compound 10 µM): > 8.50
- viability, T/C (second compound 0.0316 µM, first compound 0.00316 µM): 26.9%
- viability, T/C (second compound 0.0316 µM, first compound 0.01 µM): 17.1%
- viability, T/C [1]: 12.6%
- viability, T/C [2]: 6.38%
- viability, T/C [3]: 3.17%
- viability, T/C [4]: 0.71%
- viability, T/C (second compound 0.1 µM, first compound 0.00316 µM): 21.8%
- viability, T/C (second compound 0.1 µM, first compound 0.01 µM): 21.1%
- viability, T/C [5]: 9.73%
- viability, T/C [6]: 3.23%
- viability, T/C [7]: 1.75%
- viability, T/C [8]: 0.31%
- viability, T/C (second compound 0.316 µM, first compound 0.00316 µM): 2.15%
- viability, T/C (second compound 0.316 µM, first compound 0.01 µM): 3.91%
- viability, T/C [9]: 2.2%
- viability, T/C [10]: 0.98%
- viability, T/C [11]: 0.1%
- viability, T/C [12]: 0.1%
- viability, T/C (second compound 1 µM, first compound 0.00316 µM): 0.08%
- viability, T/C (second compound 1 µM, first compound 0.01 µM): 0.1%
- viability, T/C [13]: 0.1%
- viability, T/C [14]: 0.05%
- viability, T/C [15]: 0.07%
- viability, T/C [16]: 0.09%
- viability, T/C (second compound 3.16 µM, first compound 0.00316 µM): 0.1%
- viability, T/C (second compound 3.16 µM, first compound 0.01 µM): 0.13%
- viability, T/C [17]: 0.14%
- viability, T/C [18]: 0.11%
- viability, T/C [19]: 0.16%
- viability, T/C [20]: 0.15%
- viability, T/C (second compound 10 µM, first compound 0.00316 µM): 0.07%
- viability, T/C (second compound 10 µM, first compound 0.01 µM): 0.12%
- viability, T/C [21]: 0.17%
- viability, T/C [22]: 0.18%
- viability, T/C [23]: 0.21%
- viability, T/C [24]: 0.18%

SMILES: Nc1ccn(C2OC(CO)C(O)C2(F)F)c(=O)n1 (stereo unspecified) + CN1CCN(c2cc(C(=O)Nc3cc4cc(-c5cnn(C)c5)ccc4cn3)ccn2)CC1
- pIC50 (second compound 0.0316 µM): > 7.50
- pIC50 (second compound 0.1 µM): > 7.50
- pIC50 (second compound 0.316 µM): > 7.50
- pIC50 (second compound 1 µM): > 7.50
- pIC50 (second compound 3.16 µM): > 7.50
- pIC50 (second compound 10 µM): > 7.50
- viability, T/C [1]: 10.3%
- viability, T/C [2]: 9.2%
- viability, T/C [3]: 11.2%
- viability, T/C [4]: 10.4%
- viability, T/C [25]: 11%
- viability, T/C [26]: 12.3%
- viability, T/C [5]: 10.3%
- viability, T/C [6]: 10.5%
- viability, T/C [7]: 8.35%
- viability, T/C [8]: 11.8%
- viability, T/C [27]: 12.8%
- viability, T/C [28]: 10.7%
- viability, T/C [9]: 1.34%
- viability, T/C [10]: 3.55%
- viability, T/C [11]: 1.4%
- viability, T/C [12]: 1.47%
- viability, T/C [29]: 1.66%
- viability, T/C [30]: 1.1%
- viability, T/C [13]: 1.36%
- viability, T/C [14]: 0.1%
- viability, T/C [15]: 0.67%
- viability, T/C [16]: 0.06%
- viability, T/C [31]: 0.07%
- viability, T/C [32]: 1.87%
- viability, T/C [17]: 0.13%
- viability, T/C [18]: 0.16%
- viability, T/C [19]: 0.18%
- viability, T/C [20]: 0.15%
- viability, T/C [33]: 0.15%
- viability, T/C [34]: 0.15%
- viability, T/C [21]: 0.16%
- viability, T/C [22]: 0.66%
- viability, T/C [23]: 0.22%
- viability, T/C [24]: 1.09%
- viability, T/C [35]: 0.2%
- viability, T/C [36]: 1.04%

SMILES: O=c1[nH]cc(F)c(=O)[nH]1 + CN1CCN(c2cc(C(=O)Nc3cc4cc(-c5cnn(C)c5)ccc4cn3)ccn2)CC1
- pIC50 (second compound 0.0316 µM): 5.71
- pIC50 (second compound 0.1 µM): 5.88
- pIC50 (second compound 0.316 µM): > 7.50
- pIC50 (second compound 1 µM): > 7.50
- pIC50 (second compound 3.16 µM): > 7.50
- pIC50 (second compound 10 µM): > 7.50
- viability, T/C [1]: 93%
- viability, T/C [2]: 102%
- viability, T/C [3]: 95.2%
- viability, T/C [4]: 71.3%
- viability, T/C [25]: 30.6%
- viability, T/C [26]: 37.9%
- viability, T/C [5]: 73%
- viability, T/C [6]: 86.7%
- viability, T/C [7]: 73.5%
- viability, T/C [8]: 57.1%
- viability, T/C [27]: 27.7%
- viability, T/C [28]: 30.2%
- viability, T/C [9]: 2.26%
- viability, T/C [10]: 2.2%
- viability, T/C [11]: 3.74%
- viability, T/C [12]: 2.11%
- viability, T/C [29]: 3.66%
- viability, T/C [30]: 2.07%
- viability, T/C [13]: 0.1%
- viability, T/C [14]: 0.11%
- viability, T/C [15]: 0.74%
- viability, T/C [16]: 0.06%
- viability, T/C [31]: 0.05%
- viability, T/C [32]: 0.08%
- viability, T/C [17]: 0.14%
- viability, T/C [18]: 0.39%
- viability, T/C [19]: 0.44%
- viability, T/C [20]: 0.1%
- viability, T/C [33]: 0.14%
- viability, T/C [34]: 0.59%
- viability, T/C [21]: 0.05%
- viability, T/C [22]: 0.14%
- viability, T/C [23]: 0.14%
- viability, T/C [24]: 0.17%
- viability, T/C [35]: 0.16%
- viability, T/C [36]: 0.17%
